# Assay results reported in paper PMC3914206.
# Assays:
# [1] = target: T1, panel of 442 kinases (Homo sapiens, UniProt Q13555); assay type: binding; parameters: KINOMEscan: ABL1(F317L)-phosphorylated / KINOMEscan: ABL1(H396P)-nonphosphorylated / KINOMEscan: ABL1(H396P)-phosphorylated / KINOMEscan: ABL1(M351T)-phosphorylated / KINOMEscan: ABL1(T315I)-phosphorylated / KINOMEscan: ABL1-nonphosphorylated / KINOMEscan: ABL1-phosphorylated / KINOMEscan: ACVR2A / KINOMEscan: ACVR2B / KINOMEscan: ADCK3 / KINOMEscan: ADCK4 / KINOMEscan: AKT1 / KINOMEscan: AKT3 / KINOMEscan: ALK / KINOMEscan: ARK5 / KINOMEscan: AURKA / KINOMEscan: AURKC / KINOMEscan: BIKE / KINOMEscan: BMPR1A / KINOMEscan: BMPR1B / KINOMEscan: BMX / KINOMEscan: BRK / KINOMEscan: BRSK1 / KINOMEscan: BRSK2 / KINOMEscan: CAMK1 / KINOMEscan: CAMK1D / KINOMEscan: CAMK1G / KINOMEscan: CAMK2A / KINOMEscan: CAMK2B / KINOMEscan: AAK1 / KINOMEscan: CAMK2D / KINOMEscan: CAMK2G / KINOMEscan: ABL1(F317I)-nonphosphorylated / KINOMEscan: ABL1(F317I)-phosphorylated / KINOMEscan: ABL1(F317L)-nonphosphorylated: unit: % Ctrl; details: Compound Concentration 10 µM
# T1 construct: purchased KINOMEscan
# T1 sequence (Q13555 whole entry): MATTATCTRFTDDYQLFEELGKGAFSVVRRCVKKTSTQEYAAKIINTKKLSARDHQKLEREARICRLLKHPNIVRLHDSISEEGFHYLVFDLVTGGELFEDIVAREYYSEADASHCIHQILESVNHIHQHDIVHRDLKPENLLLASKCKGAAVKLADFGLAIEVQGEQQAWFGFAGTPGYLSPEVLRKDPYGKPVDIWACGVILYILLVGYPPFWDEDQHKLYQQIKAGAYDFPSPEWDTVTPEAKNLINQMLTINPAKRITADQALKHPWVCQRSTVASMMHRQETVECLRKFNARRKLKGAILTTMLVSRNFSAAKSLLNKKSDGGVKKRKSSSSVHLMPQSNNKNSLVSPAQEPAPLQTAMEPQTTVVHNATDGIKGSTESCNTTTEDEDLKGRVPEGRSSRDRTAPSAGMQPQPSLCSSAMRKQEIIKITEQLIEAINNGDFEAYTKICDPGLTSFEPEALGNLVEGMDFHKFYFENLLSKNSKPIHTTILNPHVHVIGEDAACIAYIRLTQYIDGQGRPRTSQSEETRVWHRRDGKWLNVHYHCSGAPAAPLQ
# Description: (§1) We assessed the selectivity of members of this scaffold using the KINOMEscan methodology across a near comprehensive panel of 442 kinases [[18,27]].
# [2] = target: T2, panel of 442 kinases (Plasmodium falciparum, UniProt P62344); assay type: binding; parameters: KINOMEscan: ABL1(F317L)-phosphorylated / KINOMEscan: ABL1(H396P)-nonphosphorylated / KINOMEscan: ABL1(H396P)-phosphorylated / KINOMEscan: ABL1(M351T)-phosphorylated / KINOMEscan: ABL1(T315I)-phosphorylated / KINOMEscan: ABL1-nonphosphorylated / KINOMEscan: ABL1-phosphorylated / KINOMEscan: ACVR2A / KINOMEscan: ACVR2B / KINOMEscan: ADCK3 / KINOMEscan: ADCK4 / KINOMEscan: AKT1 / KINOMEscan: AKT3 / KINOMEscan: ALK / KINOMEscan: ARK5 / KINOMEscan: AURKA / KINOMEscan: AURKC / KINOMEscan: BIKE / KINOMEscan: BMPR1A / KINOMEscan: BMPR1B / KINOMEscan: BMX / KINOMEscan: BRK / KINOMEscan: BRSK1 / KINOMEscan: BRSK2 / KINOMEscan: CAMK1 / KINOMEscan: CAMK1D / KINOMEscan: CAMK1G / KINOMEscan: CAMK2A / KINOMEscan: CAMK2B / KINOMEscan: AAK1 / KINOMEscan: CAMK2D / KINOMEscan: CAMK2G / KINOMEscan: ABL1(F317I)-nonphosphorylated / KINOMEscan: ABL1(F317I)-phosphorylated / KINOMEscan: ABL1(F317L)-nonphosphorylated: unit: % Ctrl; details: Compound Concentration 10 µM
# T2 construct: purchased KINOMEscan
# T2 sequence (P62344 whole entry): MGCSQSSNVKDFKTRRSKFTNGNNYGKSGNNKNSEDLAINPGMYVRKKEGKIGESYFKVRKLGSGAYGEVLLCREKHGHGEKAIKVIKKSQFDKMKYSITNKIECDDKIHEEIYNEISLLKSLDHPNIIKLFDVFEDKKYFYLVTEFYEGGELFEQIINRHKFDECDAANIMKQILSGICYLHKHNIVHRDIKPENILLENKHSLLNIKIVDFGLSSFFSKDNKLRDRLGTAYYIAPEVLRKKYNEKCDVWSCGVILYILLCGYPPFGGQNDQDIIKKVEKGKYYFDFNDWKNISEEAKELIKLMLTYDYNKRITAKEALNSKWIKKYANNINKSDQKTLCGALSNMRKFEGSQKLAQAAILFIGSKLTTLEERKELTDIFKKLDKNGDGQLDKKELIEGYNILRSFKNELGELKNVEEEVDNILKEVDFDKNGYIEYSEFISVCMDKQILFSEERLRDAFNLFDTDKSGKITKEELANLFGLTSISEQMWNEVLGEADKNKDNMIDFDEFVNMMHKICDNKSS
# Description: as §1
SMILES,KINOMEscan: CAMK2G [1],KINOMEscan: PFCDPK1(P.falciparum) [2]
COc1cc(C(=O)N2CCC(N3CCN(C)CC3)CC2)ccc1Nc1ncc2c(n1)N(C)c1ccccc1C(=O)N2C [15 (LRRK2-IN-1)],47,100
CCOc1cc(C(=O)N2CCC(N3CCN(C)CC3)CC2)ccc1Nc1ncc2c(n1)N(C1CCCC1)c1ccccc1C(=O)N2C [Compound 26],94,100
COc1cc(C(=O)N2CCC(N3CCN(C)CC3)CC2)ccc1Nc1ncc2c(n1)N1CCc3cccc(c31)C(=O)N2C [Compound 24],76,
"COc1cc(C(=O)N2CCC(N3CCN(C)CC3)CC2)ccc1Nc1ncc2c(n1)N(C1CCCC1)c1ccccc1C(=O)N2C [Compound 25, 11-cyclopentyl-2-((2-methoxy-4-(4-(4-methylpiperazin-1-yl)piperidine-1-carbonyl)phenyl)amino)-5-methyl-5H-benzo[e]pyrimido[5,4-b][1,4]diazepin-6(11H)-one]",98,91
